Starred links: 1 amine or outer side, 2 acyl side, 3 side chain; linkers in the order of their positions; H or OH if unused. Positions of bridges follow the written chain, without caps; N, C: chain ends. Non-standard residues stand in square brackets, D forms with d. Primed or numbered codes have the meaning given here. Chains are numbered I, II in the order given. No end group written: not given here. *: point of attachment. X4 = O=C(CCOCCOCCOCCOCCOCCn1cc(CCC(=O)[*:2])nn1)NCCCN(CCCNC(=O)CCOCCOCCOCCOCCOCCn1cc(CCC(=O)[*:3])nn1)CC(=O)[*:1]; X1 = O=C(CCOCCOCCOCCN(CCOCCOCCOCCn1cc(CCC(=O)[*:2])nn1)CCOCCOCCOCCn1cc(CCC(=O)[*:3])nn1)[*:1]; PYA″ = 4-pentynoic acid, acylating the D-Lys side chain, alkyne clicked to the linker azide; X2 = O=C(CCSCCC(=O)[*:1])N1CN(C(=O)CC[*:2])CN(C(=O)CC[*:3])C1; TATA = O=C(CC[*:1])N1CN(C(=O)CC[*:2])CN(C(=O)CC[*:3])C1; Ala(4-thiazolyl) = N[C@@H](Cc1cscn1)C(=O)O; Dip = N[C@H](C(=O)O)C(c1ccccc1)c1ccccc1; His(τ-Me) = Cn1cnc(C[C@H](N)C(=O)O)c1; d1Nal = N[C@H](Cc1cccc2ccccc12)C(=O)O; Hyp = O=C(O)[C@@H]1C[C@@H](O)CN1; hArg = N=C(N)NCCCC[C@H](N)C(=O)O; tBuAla = CC(C)(C)C[C@H](N)C(=O)O; Cysteamide = C(CS[*:3])N[*:1]; Cba = N[C@@H](CC1CCC1)C(=O)O; dK(PYA) = not defined here; Nle = CCCC[C@H](N)C(=O)O; Pent4ynoyl = C#CCCC(=O)*; Mpa = O=C(O)CCS
Legend:
[1] = target: T1, CD137 (Homo sapiens, UniProt Q07011); test: CD137 reporter assay (Promega CD137 luciferase reporter, Jurkat cells) in co-culture with Nectin-4-expressing tumor cells; type: cell-based; design: host or cells: Jurkat reporter cells; conditions: co-culture with HT1376, Table 2A
T1 sequence (Q07011 24-255): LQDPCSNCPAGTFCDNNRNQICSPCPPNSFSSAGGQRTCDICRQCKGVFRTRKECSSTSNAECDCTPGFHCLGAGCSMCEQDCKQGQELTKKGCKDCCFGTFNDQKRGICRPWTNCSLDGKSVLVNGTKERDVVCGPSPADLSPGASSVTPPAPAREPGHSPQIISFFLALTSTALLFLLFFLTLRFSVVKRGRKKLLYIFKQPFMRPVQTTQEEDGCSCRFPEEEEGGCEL

[2] = target: T1, CD137; test: CD137 reporter assay (Promega, Jurkat cells) in co-culture with EphA2-expressing tumor cells (A549, PC3, HT29); type: cell-based; design: host or cells: Jurkat reporter cells; conditions: for Emax (fold induction over background) / fold induction: CD137 reporter coculture assay with PC3 tumor cells; for EC50: EC50, CD137 reporter coculture assay with PC3 tumor cells; for fold induction: read-out: Emax (fold induction over background); for Fold Improvement over BCY9173, EC50 (nM) / Fold Improvement over Emax: co-culture with PC3; for Fold Improvement over Emax: versus BCY9173
Procedure: Culture medium, referred to as R1 media, is prepared by adding 1% FBS to RPMI-1640 (component of Promega kit CS196005). Serial dilutions of test articles in R1 are prepared in a sterile 96 well-plate. Add 25 μL per well of test articles or R1 (as a background control) to designated wells in a white cell culture plate. Tumor cells* are harvested and resuspended at a concentration of 400,000 cells/mL in R1 media. Twenty five (25) μL/well of tumor cells are added to the white cell culture plate. Jurkat cells (Promega kit CS196005, 0.5 mL) are thawed in the water bath and then added to 5 ml pre-warmed R1 media. Twenty five (25) μL/well of Jurkat cells are then added to the white cell culture plate. Incubate the cells and test articles for 6 h at 37° C., 5% CO2. At the end of 6 h, add 75 μL/well Bio-Glo™ reagent (Promega) and incubate for 10 min before reading luminescence in a plate reader (Clariostar, BMG). The fold change relative to cells alone (Jurkat cells+Cell line used in co-culture) is calculated and plotted in GraphPad Prism as log(agonist) vs response to determine EC50 (nM) and Fold Induction over background (Max).
The tumor cell types used in co-culture for EphA2 are A549, PC3 and HT29. The tumor cell type used in co-culture for PD-L1 is RKO.

[3] = Pharmacokinetics in SD rats; type: in vivo; conditions: rat, in vivo, IV Inf (15 minutes)
Procedure: Male SD Rats were dosed with each heterotandem Bicycle peptide complex formulated in 25 mM Histidine HCl, 10% sucrose pH 7 by IV bolus or IV infusion (15 minutes). Serial bleeding (about 80 μL blood/time point) was performed via submandibular or saphenous vein at each time point. All blood samples were immediately transferred into prechilled microcentrifuge tubes containing 2 μL K2-EDTA (0.5M) as anti-coagulant and placed on wet ice. Blood samples were immediately processed for plasma by centrifugation at approximately 4° C., 3000 g. The precipitant including internal standard was immediately added into the plasma, mixed well and centrifuged at 12,000 rpm, 4° C. for 10 minutes. The supernatant was transferred into pre-labeled polypropylene microcentrifuge tubes, and then quick-frozen over dry ice. The samples were stored at […] or below as needed until analysis. 7.5 μL of the supernatant samples were directly injected for LC-MS/MS analysis using an Orbitrap Q Exactive in positive ion mode to determine the concentrations of analyte. Plasma concentration versus time data were analyzed by non-compartmental approaches using the Phoenix WinNonlin 6.3 software program. C0, CI, Vdss, T½, AUC(0-last), AUC(0-inf), MRT(0-last), MRT(0-inf) and graphs of plasma concentration versus time profile were reported.

Row | Fold Improvement over BCY9173, EC50 (nM) [2] [fold] | Fold Improvement over Emax [2] [fold] | Compound | EC50 [2] [nM] | fold induction [2] | also measured
1 | – | – | CCCC[C@@H]1NC(=O)[C@H](Cc2ccc(O)cc2)NC(=O)[C@@H]2CCCN2C(=O)[C@H](CC(=O)O)NC(=O)[C@H](C)NC(=O)[C@H](Cc2ccccc2)NC(=O)[C@@H]2CSCCC(=O)N3CN(CN(C3)C(=O)CCSC[C@@H](C(=O)N[C@@H](CNC(=O)CCc3cn(CCOCCOCCOCCOCCOCCOCCOCCOCCOCCOCCNC(=O)c4cc(C(=O)NCCOCCOCCOCCOCCOCCOCCOCCOCCOCCOCCn5cc(CCC(=O)NC[C@H](NC(=O)[C@@H]6CSCCC(=O)N7CN8CN(C7)C(=O)CCSC[C@H](NC(=O)[C@H](Cc7ccc(O)cc7)NC(=O)[C@@H]7CCCN7C(=O)[C@@H](C)NC(=O)[C@H](CCC(=O)O)NC(=O)[C@@H]7CCCN7C(=O)[C@H](CC(C)(C)C)NC(=O)[C@@H](NC(C)=O)CSCCC8=O)C(=O)N[C@@H](Cc7ccccc7)C(=O)N[C@@H](C)C(=O)N[C@@H](CC(=O)O)C(=O)N7CCC[C@H]7C(=O)N[C@@H](Cc7ccc(O)cc7)C(=O)N[C@@H](CCCC)C(=O)N6)C(N)=O)nn5)cc(C(=O)NCCOCCOCCOCCOCCOCCOCCOCCOCCOCCOCCn5cc(CCC(=O)N[C@H]6CSCCC(=O)N7CN8CN(C7)C(=O)CCSC[C@H](NC(=O)[C@@H](CC(=O)O)NC(=O)[C@H](Cc7cccc9ccccc79)NC(=O)[C@@H]7CCCN7C6=O)C(=O)N[C@@H](CCSC)C(=O)N[C@@H](CCCCNC(=N)N)C(=O)N[C@@H](CC(=O)O)C(=O)N[C@@H](Cc6c[nH]c7ccccc67)C(=O)N[C@@H](CO)C(=O)N[C@@H]([C@@H](C)O)C(=O)N6CCC[C@H]6C(=O)N6C[C@H](O)C[C@H]6C(=O)N[C@@H](Cc6c[nH]c7ccccc67)C(=O)N[C@H](C(N)=O)CSCCC8=O)nn5)c4)nn3)C(N)=O)NC1=O)C(=O)CCSC[C@H](NC(C)=O)C(=O)N[C@@H](CC(C)(C)C)C(=O)N1CCC[C@H]1C(=O)N[C@@H](CCC(=O)O)C(=O)N[C@H](C)C(=O)N1CCC[C@H]1C(=O)N[C@@H](Cc1ccc(O)cc1)C(=O)N2 [BCY10919] | – | – | EC50 ([1]; EC50 (nM)): 0.19 nM; Emax [1]: 62 fold induction over background
2 | – | – | I: A[hArg]DC[Hyp]LVNPLCLHP[dD]W[hArg]C-NH2 / II: Ac-C[tBuAla]PE[dK]PYCFADPY[Nle]CA-NH2 / III: Ac-C[tBuAla]PE[dK]PYCFADPY[Nle]CA-NH2 (linker I:4-I:11-I:18, II:1-II:8-II:15, III:1-III:8-III:15 via TATA; linker I:N-II:5-III:5 via X4) [BCY12979] | 0.08 | – | Emax (fold induction over background) [2]: 71.60
3 | – | – | I: A[hArg]DC[Hyp]LVNPLCLEP[dD]W[hArg]C-NH2 / II: Ac-C[tBuAla]PE[dK]PYCFADPY[Nle]CA-NH2 / III: Ac-C[tBuAla]PE[dK]PYCFADPY[Nle]CA-NH2 (linker I:4-I:11-I:18, II:1-II:8-II:15, III:1-III:8-III:15 via TATA; linker I:N-II:5-III:5 via X1) [BCY13042] | 0.08 | 58.3 | –
4 | – | – | I: A[hArg]DC[Hyp]LVNPLCLEP[dD]WTC-NH2 / II: Ac-C[tBuAla]PE[dK]PYCFADPY[Nle]CA-NH2 / III: Ac-C[tBuAla]PE[dK]PYCFADPY[Nle]CA-NH2 (linker I:4-I:11-I:18, II:1-II:8-II:15, III:1-III:8-III:15 via TATA; linker I:N-II:5-III:5 via X1) [BCY13044] | 0.21 | 49.5 | –
5 | 0.5 | 1.6 | BCY12729: EphA2:CD137 1:2; BCY9594 + 2x BCY12352; linker N-(acid-PEG3)-N-bis(PEG3-azide) (peptide 1 A[hArg]DC[Hyp]LVNPLCLHP[dD]W[hArg]C; peptide 2 Ac-C[tBuAla]PE[dK(PYA)]PYCFADPY[Nle][Cysteamide]; linker I:4-I:11-I:18 via TATA (inferred); linker II:1-II:8-II:15 via TATA; linker II:N-II:5 via N‑(acid-PEG3)‑N‑bis(PEG3-azide); not fully specified (N-terminus); reading uncertain; also: chain 2 twice (1:2 complex)) | – | – | –
6 | 2.05 | 1.91 | BCY14050: EphA2:CD137 1:2; BCY13918 + 2x BCY8928; linker N-(acid-PEG3)-N-bis(PEG3-azide) (peptide 1 A[hArg]DC[Hyp]LVNPLCL[His(τ-Me)]P[dD]W[hArg]C; peptide 2 Ac-C[tBuAla]PE[dK](PYA″)PYCFADPY[Nle]CA; linker I:4-I:11-I:18, II:1-II:8-II:15 via TATA (inferred); not fully specified (N-terminus, bridges); also: 2x chain 2 (2x BCY8928) on linker) | – | – | –
7 | 3.15 | 1.88 | BCY14051: EphA2:CD137 1:2; BCY13919 + 2x BCY8928; linker N-(acid-PEG3)-N-bis(PEG3-azide) (peptide 1 A[hArg]DC[Hyp]LVNPLCL[Ala(4-thiazolyl)]P[dD]W[hArg]C; peptide 2 Ac-C[tBuAla]PE[dK](PYA″)PYCFADPY[Nle]CA; linker I:4-I:11-I:18, II:1-II:8-II:15 via TATA (inferred); not fully specified (N-terminus, bridges); also: 2x chain 2 (2x BCY8928) on linker) | – | – | –
8 | 7.14 | 0.94 | BCY14335: EphA2:CD137 1:2; BCY14327 (Lys 8) + 2x BCY8928; linker N-(acid-PEG3)-N-bis(PEG3-azide) (peptide 1 {Palmitoyl‑Glu‑LysN3-Pent4ynoyl}-A[hArg]DC[Hyp]LVNPLCLKP[dD]W[hArg]C; peptide 2 Ac-C[tBuAla]PE[dK](Pent4ynoyl)PYCFADPY[Nle]CA; linker I:4-I:11-I:18, II:1-II:8-II:15 via TATA (inferred); not fully specified (some residues); also: 1:2 complex: linker bis(PEG3-azide) clicked to dLys(PYA)4 of two BCY8928 copies, one copy shown) | – | – | –
9 | – | – | I: [d1Nal][hArg]DC[Hyp][Cba]VNPLCLEP[dA]WTC[dA]-NH2 / II: Ac-C[tBuAla]PE[dK]PYCFADPY[Nle]CA-NH2 / III: Ac-C[tBuAla]PE[dK]PYCFADPY[Nle]CA-NH2 (linker I:4-I:11-I:18, II:1-II:8-II:15, III:1-III:8-III:15 via TATA; linker I:N-II:5-III:5 via X1) [BCY13278] | 0.14 | 37.9 | –
10 | – | – | I: C[Hyp]LVNPLCL[Dip]P[dD]WTC-NH2 / II: [Mpa][tBuAla]PE[dK]PYCFADPY[Nle]C-NH2 / III: [tBuAla]PE[dK]PYCFADPY[Nle]C-NH2 (linker I:1-I:8-I:15, II:1-II:8-II:15 via TATA; linker I:N-II:5-III:4 via X1; linker III:N-III:7-III:14 via X2) [BCY13343] | 0.11 | – | Emax (fold induction over background) [2]: 44.00
11 | – | – | I: [dA][dA]DC[Hyp]LVNPLCLEP[dD]WTC-NH2 / II: Ac-C[tBuAla]PE[dK]PYCFADPY[Nle]CA-NH2 / III: Ac-C[tBuAla]PE[dK]PYCFADPY[Nle]CA-NH2 (linker I:4-I:11-I:18, II:1-II:8-II:15, III:1-III:8-III:15 via TATA; linker I:N-II:5-III:5 via X1) [BCY13281] | 0.17 | 35.6 | –
12 | – | – | I: A[hArg]DC[Hyp]LVNPLCLEP[dD]WTC-NH2 / II: [Mpa][tBuAla]EE[dK]PYCFADPY[Nle]C-NH2 / III: [tBuAla]EE[dK]PYCFADPY[Nle]C-NH2 (linker I:4-I:11-I:18, II:1-II:8-II:15 via TATA; linker I:N-II:5-III:4 via X1; linker III:N-III:7-III:14 via X2) [BCY13140] | 0.12 | – | Emax (fold induction over background) [2]: 46.70
13 | – | – | I: A[hArg]DC[Hyp]LVNPLCLHP[dD]W[hArg]C-NH2 / II: Ac-C[tBuAla]PE[dK]PYCFADPY[Nle]C-NH2 / III: Ac-C[tBuAla]PE[dK]PYCFADPY[Nle]C-NH2 (linker I:4-I:11-I:18, II:1-II:8-II:15, III:1-III:8-III:15 via TATA; linker I:N-II:5-III:5 via X1) [BCY12724] | – | – | half-life ([3]; iv, read-out: T1/2 (converted)): 90 min; clearance ([3]; read-out: Clp): 13 mL/min/kg; Vd ([3]; read-out: Vdss): 1.2 L/kg

From patent US20230129258A1, “HETEROTANDEM BICYCLIC PEPTIDE COMPLEXES” (BicycleTx Limited, priority 2019, published 2023)
